Reference: patent US20090275574A1, “NOVEL COMPOUNDS-300” (ASTRAZENECA AB, priority 2008, published 2009)

Columns and labels:
[1] = target: T1, cloned human M4 receptor (Homo sapiens, UniProt P08173); assay: hM4 receptor GTPγS binding; assay type: biochemical; details: CHO membranes expressing hM4, [35S]GTPγS binding
T1 construct: purchased Perkin-Elmer RBHM4M; host or cells: Chinese hamster ovary cells (CHO), membranes
T1 sequence (P08173 1-479): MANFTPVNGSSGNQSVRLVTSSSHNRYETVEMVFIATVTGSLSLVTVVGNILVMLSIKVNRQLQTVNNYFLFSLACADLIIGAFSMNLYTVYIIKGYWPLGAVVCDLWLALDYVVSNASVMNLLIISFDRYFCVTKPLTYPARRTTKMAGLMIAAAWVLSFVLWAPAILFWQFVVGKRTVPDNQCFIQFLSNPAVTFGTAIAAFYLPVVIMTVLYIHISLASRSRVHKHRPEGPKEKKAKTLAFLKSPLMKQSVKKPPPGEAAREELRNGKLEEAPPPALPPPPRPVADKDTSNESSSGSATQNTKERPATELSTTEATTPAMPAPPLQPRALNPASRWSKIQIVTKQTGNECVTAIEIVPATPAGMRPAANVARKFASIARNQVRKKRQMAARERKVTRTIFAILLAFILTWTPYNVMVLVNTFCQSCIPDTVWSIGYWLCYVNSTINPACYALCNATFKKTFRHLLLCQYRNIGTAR
Experimental: hM4 Receptor GTPγS Binding Membranes produced from Chinese hamster ovary cells (CHO) expressing the cloned human M4 receptor (human Muscarinic receptor subtype 4, gene bank access NM_000741), are obtained from Perkin-Elmer (RBHM4M). The membranes are thawed at 37° C., passed 3 times through a 23-gauge blunt-end needle, diluted in the GTPγS binding buffer (50 mM Hepes, 20 mM NaOH, 100 mM NaCl, 1 mM EDTA, 5 mM MgCl2, pH 7.4, 100 μM DTT). The EC50, IC50 and Emax of the compounds of the invention are evaluated from 10-point dose-response curves (three fold concentration range) done in 60 μl in 384-well non-specific binding surface plate (Corning). Ten microliters from the dose-response curves plate (5× concentration) are transferred to another 384 well plate containing 25 μl of the following: 10 μg of hM4 membranes, 500 μg of Flashblue beads (Perkin-Elmer) and GDP 40 μM. An additional 15 μl containing 3.3× (60,000 dpm) of GTPγ^35S (0.4 nM final) are added to the wells resulting in a total well volume of 50 μl. Basal and maximal stimulated [^35S]GTPγS binding are determined in absence and presence of 30 μM final of acetylcholine agonist. The membranes/beads mix are pre-incubated for 15 minutes at room temperature with 40 μM GDP prior to distribution in plates (20 μM final). The reversal of acetylcholine-induced stimulation (10 μM final) of [^35S]GTPγS binding is used to assay the antagonist properties (IC50) of the compounds. The plates are incubated for 60 minutes at room temperature then centrifuged at 400 rpm for 5 minutes. The radioactivity (cpm) is counted in a Trilux (Perkin-Elmer). Values of EC50, IC50 and Emax are obtained using sigmoidal fits of a non-linear curve-fitting program (XLfit version 4.2.2 Excel add-in version 4.2.2 build 18 math 1Q version 2.1.2 build 18) of percent stimulated [^35S]GTPγS binding vs. log(molar ligand). All pEC50 and pIC50 values are reported as arithmetic means±standard error of mean of ‘n’ independent experiments.

[2] = target: T2, hM1 (human Muscarinic receptor subtype 1) (Homo sapiens, UniProt P11229); assay: Human M1 calcium mobilization FLIPR assay; assay type: cell-based; details: hM1 expressed in CHO cells, intracellular Ca2+ release (FLIPR)
T2 construct: expressed in transfected cells; host or cells: CHO cells (ATCC)
T2 sequence (P11229 1-460): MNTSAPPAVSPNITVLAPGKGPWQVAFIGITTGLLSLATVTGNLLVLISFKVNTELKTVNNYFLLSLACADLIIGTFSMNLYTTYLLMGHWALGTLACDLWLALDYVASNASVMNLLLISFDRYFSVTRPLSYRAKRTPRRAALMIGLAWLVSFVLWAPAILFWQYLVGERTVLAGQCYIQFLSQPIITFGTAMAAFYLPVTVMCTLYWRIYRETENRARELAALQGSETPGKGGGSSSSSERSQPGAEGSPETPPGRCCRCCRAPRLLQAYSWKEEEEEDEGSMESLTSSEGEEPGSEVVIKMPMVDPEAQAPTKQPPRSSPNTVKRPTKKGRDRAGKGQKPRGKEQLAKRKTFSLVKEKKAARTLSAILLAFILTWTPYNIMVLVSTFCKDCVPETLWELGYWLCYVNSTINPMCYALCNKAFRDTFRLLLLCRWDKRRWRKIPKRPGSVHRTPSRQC
Experimental: Human M1, rat M1, Human M3 and Human M5 Calcium Mobilization FLIPR™ Assay The compound activity in the present invention (EC50 or IC50) is measured using a 384 plate-based imaging assay that monitors drug induced intracellular Ca^2+ release in whole cells. Activation of hM1 (human Muscarinic receptor subtype 1, gene bank access NM_000738), rM1 (rat Muscarinic receptor subtype 1, gene bank access NM_080773), hM3 (human Muscarinic receptor subtype 3, gene bank access NM_000740NM_000740) and hM5 (human Muscarinic receptor subtype 5, gene bank access NM_0121258), receptors expressed in CHO cells (Chinese hamster ovary cells, ATCC) is quantified in a Molecular Devices FLIPR IITM instrument as an increase in fluorescent signal. Inhibition of hM3 and hM5 by compounds is determined by the decrease in fluorescent signal in response to 2 nM acetylcholine activation. […] Prior to experiment, the cell culture medium is removed from the plates by inversion. […] Plates are incubated at 37° C. for 60 minutes prior to start the experiment. The incubation is terminated by washing the cells four times in assay buffer, leaving a residual 25 μl buffer per well. Cell plates are then transferred to the FLIPR, ready for compound additions. The day of experiment, acetylcholine and compounds are diluted in assay buffer in three-fold concentration range (10 points serial dilution) for addition by FLIPR instrument. For all calcium assays, a baseline reading is taken for 10 seconds followed by the addition of 12.5 μl of compounds, resulting in a total well volume of 37.5 μl. Data is collected every second for 60 pictures and then every 6 seconds for 20 pictures prior to the addition of agonist. For hM3 and hM5, before agonist addition, a second baseline reading is taken for 10 seconds followed by the addition of 12.5 μl of agonist or buffer, producing a final volume of 50 μl. After agonist stimulation, the FLIPR continues to collect data every second for 60 pictures and then every 6 seconds for 20 pictures. The fluorescence emission is read using filter 1 (emission 510-570 nm) by the FLIPR on board CCD camera. Calcium mobilization output data are calculated as the maximal relative fluorescence unit (RFU) minus the minimal value for both compound and agonist reading frame (except for hM1 and rM1 using only the maximal RFU). Data are analyzed using sigmoidal fits of a non-linear curve-fitting program (XLfit version 4.2.2 Excel add-in version 4.2.2 build 18 math 1Q version 2.1.2 build 18). All pEC50 and pIC50 values are reported as arithmetic means±standard error of mean of ‘n’ independent experiments.

SMILES | EC50 [1] | EC50 [2]
CCOCC1CCC(N2CCC(N3C(=O)NC[C@H]4CCCC[C@@H]43)CC2)CC1 (mixture of isomers) [Example 08, (4aR,8aS)-1-(1-(4-(ethoxymethyl)cyclohexyl)piperidin-4-yl)octahydroquinazolin-2(1H)-one] | 985 nM | 5.2 nM
CC(C)OCC1CCC(N2CCC(N3C(=O)CO[C@H]4CCCC[C@@H]43)CC2)CC1 (mixture of isomers) [Example 15, (4aS,8aS)-4-(1-(4-(isopropoxymethyl)cyclohexyl)piperidin-4-yl)hexahydro-2H-benzo[b][1,4]oxazin-3(4H)-one] | > 33500 nM | 10 nM
CCCOCC1CCC(N2CCC(N3C(=O)NC[C@H]4CCCC[C@@H]43)CC2)CC1 (single isomer, unassigned) [Example 01] | > 51900 nM | 21 nM
CCCOCC1CCC(N2CCC(N3C(=O)NC[C@H]4CCCC[C@@H]43)CC2)CC1 (single isomer, unassigned) [Example 02] | 521 nM | 2 nM
CC(C)OCC1CCC(N2CCC(N3C(=O)NC[C@H]4CCCC[C@@H]43)CC2)CC1 (single isomer, unassigned) [Example 04] | 683 nM | 3.2 nM
CCCOC1CCC(N2CCC(N3C(=O)NC[C@H]4CCCC[C@@H]43)CC2)CC1 (single isomer, unassigned) [Example 06] | > 90000 nM | 41 nM
CCOCC1CCC(N2CCC(N3C(=O)CO[C@H]4CCCC[C@@H]43)CC2)CC1 (single isomer, unassigned) [Example 13] | > 23400 nM | 17 nM
CCOCC1CCC(N2CCC(N3C(=O)CO[C@H]4CCCC[C@@H]43)CC2)CC1 (single isomer, unassigned) [Example 14] | 4840 nM | 9.9 nM
CCCOC1CCC(N2CCC(N3C(=O)CO[C@H]4CCCC[C@@H]43)CC2)CC1 (single isomer, unassigned) [Example 17] | > 90000 nM | 88 nM
CC(C)OCC1CCC(N2CCC(N3C(=O)CO[C@H]4CCCC[C@@H]43)CC2)CC1 (single isomer, unassigned) [Example 18] | > 24900 nM | 7.8 nM
CC(C)OCC1CCC(N2CCC(N3C(=O)CO[C@H]4CCCC[C@@H]43)CC2)CC1 (single isomer, unassigned) [Example 19] | > 43400 nM | 14 nM
O=C1CO[C@H]2CCCC[C@@H]2N1C1CCN(C2CCC(COCC3CC3)CC2)CC1 (single isomer, unassigned) [Example 22] | > 90000 nM | 5.6 nM
O=C1CO[C@H]2CCCC[C@@H]2N1C1CCN(C2CCC(COCC3CC3)CC2)CC1 (single isomer, unassigned) [Example 23] | > 90000 nM | 38 nM
O=C1CO[C@H]2CCCC[C@@H]2N1C1CCN(C2CCC(COCCF)CC2)CC1 (single isomer, unassigned) [Example 24] | > 90000 nM | 41 nM
O=C1CO[C@H]2CCCC[C@@H]2N1C1CCN(C2CCC(COCCF)CC2)CC1 (single isomer, unassigned) [Example 25] | > 26500 nM | 9.6 nM
O=C1CO[C@H]2CCCC[C@@H]2N1C1CCN(C2CCC(COCC(F)F)CC2)CC1 (single isomer, unassigned) [Example 26] | > 90000 nM | 17 nM

Results, then the molecule that gave them:

EC50 [1] | EC50 [2] | SMILES
> 90000 nM | 4.2 nM | O=C1CO[C@H]2CCCC[C@@H]2N1C1CCN(C2CCC(COCC(F)F)CC2)CC1 (single isomer, unassigned) [Example 27]
> 90000 nM | 34 nM | CC(C)OCC1CCC(N2CCC(N3C(=O)CO[C@H]4CCC(F)(F)C[C@@H]43)CC2)CC1 (single isomer, unassigned) [Example 37]
> 90000 nM | 18 nM | CC(C)OCC1CCC(N2CCC(N3C(=O)CO[C@H]4CCC(F)(F)C[C@@H]43)CC2)CC1 (single isomer, unassigned) [Example 38]
> 90000 nM | 33 nM | CCOCC1CC(N2CCC(N3C(=O)CO[C@H]4CCCC[C@@H]43)CC2)C1 (single isomer, unassigned) [Example 39]
> 90000 nM | 57 nM | O=C1CO[C@H]2CCCC[C@@H]2N1C1CCN(C2CC(COCC3CCC3)C2)CC1 (single isomer, unassigned) [Example 40]
5360 nM | 0.97 nM | CCOCC1CCC(N2CCC(N3C(=O)CO[C@H]4CCCC[C@@H]43)CC2)C1 (single isomer, unassigned) [Example 44]
> 14700 nM | 48 nM | CCOCC1CCC(N2CCC(N3C(=O)CO[C@H]4CCCC[C@@H]43)CC2)C1 (single isomer, unassigned) [Example 45]
> 11700 nM | 15 nM | O=C1COC2CCCC2N1C1CCN([C@H]2CC[C@@H](COCC3CC3)CC2)CC1 (single isomer, unassigned) [Example 48]
> 90000 nM | 23 nM | O=C1NC[C@H]2CCCC[C@@H]2N1C1CCN(C2CCC(COCC(F)F)CC2)CC1 (single isomer, unassigned) [Example 51]
4240 nM | 4.2 nM | CCOC[C@H]1CC[C@@H](N2CCC(N3C(=O)CO[C@H]4CCCC[C@@H]43)CC2)C1 [Example 42, (4aS,8aS)-4-(1-((1R,3S)-3-(ethoxymethyl)cyclopentyl)piperidin-4-yl)hexahydro-2H-benzo[b][1,4]oxazin-3(4H)-one]
